SC1.5 data for 32 compounds are collected here from US8222416B2, “Azaindole glucokinase activators” (Hoffmann-La Roche Inc., priority 2009, dated 2012).

The test concerns the target T1, Recombinant human liver GK1 (GST-GK) (Homo sapiens, UniProt P35557).
T1 construct: made in house; host or cells: E. coli
T1 sequence (P35557 1-466 isoform P35557-2): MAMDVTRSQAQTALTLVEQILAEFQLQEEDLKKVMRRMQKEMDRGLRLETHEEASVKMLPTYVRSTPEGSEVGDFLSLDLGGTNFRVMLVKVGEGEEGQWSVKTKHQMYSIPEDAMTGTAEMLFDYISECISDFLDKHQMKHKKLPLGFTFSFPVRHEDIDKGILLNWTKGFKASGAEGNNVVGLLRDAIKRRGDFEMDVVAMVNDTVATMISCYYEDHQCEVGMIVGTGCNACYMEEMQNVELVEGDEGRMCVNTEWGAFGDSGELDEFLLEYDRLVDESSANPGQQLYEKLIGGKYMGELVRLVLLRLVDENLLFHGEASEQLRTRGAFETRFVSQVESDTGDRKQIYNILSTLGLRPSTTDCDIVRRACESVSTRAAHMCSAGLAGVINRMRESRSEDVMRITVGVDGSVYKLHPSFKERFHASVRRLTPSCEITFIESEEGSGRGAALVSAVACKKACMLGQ
Nature of the test: In vitro glucokinase activity assay (G6PDH-coupled, NADH, OD340). The class given is biochemical. Particulars: concentration of activator that produced a 50% increase in the activity of GK; 5 mM D-glucose, 30° C. As for the experimental part: Glucokinase In Vitro Assay Protocol: Glucokinase (GK) was assayed by coupling the production of glucose-6-phosphate to the generation of NADH with glucose-6-phosphate dehydrogenase (G6PDH, 0.75-1 kunits/mg; Boehringer Mannheim, Indianapolis, Ind.) from Leuconostoc mesenteroides as the coupling enzyme (Scheme 2).
Recombinant human liver GK1 was expressed in E. coli as a glutathione S-transferase fusion protein (GST-GK) [Liang et al, 1995] and was purified by chromatography over a glutathione-Sepharose 4B affinity column using the procedure provided by the manufacturer (Amersham Pharmacia Biotech, Piscataway, N.J.).
The assay was conducted at 30° C. in a flat bottom 96-well tissue culture plate from Costar (Cambridge, Mass.) with a final incubation volume of 120 μL. The incubation reaction contained the following: 25 mM Hepes buffer (pH 7.1), 25 mM KCl, 5 mM D-glucose, 1 mM ATP, 1.8 mM NAD, 2 mM MgCl2, 1 μM sorbitol-6-phosphate, 1 mM dithiothreitol, test drug or 10% dimethylsulfoxide, ˜7 units/ml G6PDH, and GK (see below). All organic reagents were >98% pure and were from Boehringer Mannheim with the exceptions of D-glucose and Hepes which were from Sigma Chemical Co, St Louis, Mo. Test compounds were dissolved in dimethylsulfoxide and were added to the incubation reaction minus GST-GK in a volume of 12 μL to yield a final dimethylsulfoxide concentration of 10%. This mix was pre-incubated in the temperature controlled chamber of a SPECTRAmax 250 microplate spectrophotometer (Molecular Devices Corporation, Sunnyvale, Calif.) for 10 minutes to allow temperature equilibrium and then the reaction was started by the addition of 20 μL GST-GK.
After addition of enzyme, the increase in optical density (OD) at 340 nm was monitored spectrophotometrically to determine the rate of change (OD340 per min). The GK activity (OD340/min) in control wells (10% dimethylsulfoxide minus GK activators) was compared with the activity in wells containing test GK activators, and the concentration of activator that produced a 50% increase in the activity of GK, i.e., the SC1.5, was calculated.
Take `CC(O)c1cnc2[nH]c(C(CC3CCCC3)c3ccc(S(C)(=O)=O)cc3)cc2c1` (single isomer, unassigned) [Example 9, 1-{2-[2-Cyclopentyl-1-(4-methanesulfonyl-phenyl)-ethyl]-1H-pyrrolo[2,3-b]pyridin-5-yl}-ethanol]: the SC1.5 worked out at 10.9 µM.
Consider `COc1cnc2[nH]c([C@H](CC3CCCCC3)c3ccc(S(C)(=O)=O)cc3)cc2c1` (single isomer, unassigned) [Example 10], for which the SC1.5 was determined as 0.218 µM.
On to `CN(C)C(=O)COc1cnc2[nH]c([C@H](CC3CCCC3)c3ccc(S(C)(=O)=O)cc3)cc2c1` (single isomer, unassigned) [Example 14], for which the SC1.5 worked out at 0.742 µM.
On to `COc1cnc2[nH]c(C(CC3CCCO3)c3ccc(S(C)(=O)=O)cc3)cc2c1` (single isomer, unassigned) [Example 23, 2-[1-(4-Methanesulfonyl-phenyl)-2-(tetrahydro-furan-2-yl)-ethyl]-5-methoxy-1H-pyrrolo[2,3-b]pyridine], for which the SC1.5 came to 21.9 µM.
Turning to `COc1cnc2[nH]c(C(CC3CCCO3)c3ccc(S(C)(=O)=O)cc3)cc2c1` (single isomer, unassigned) [Example 24, 2-[1-(4-Methanesulfonyl-phenyl)-2-(tetrahydro-furan-2-yl)-ethyl]-5-methoxy-1H-pyrrolo[2,3-b]pyridine], the SC1.5 worked out at 2.0 µM.
Under `COc1cnc2[nH]c(C(CC3CCCO3)c3ccc(S(C)(=O)=O)cc3)cc2c1` (single isomer, unassigned) [Example 25, 2-[1-(4-Methanesulfonyl-phenyl)-2-(tetrahydro-furan-2-yl)-ethyl]-5-methoxy-1H-pyrrolo[2,3-b]pyridine] stands 22.0 µM.
For the compound `CC(C)(CO)Oc1cnc2[nH]c([C@H](CC3CCCC3)c3ccc(S(C)(=O)=O)cc3)cc2c1` (single isomer, unassigned) [Example 29], the SC1.5 is 1.1 µM.
In the case of `CS(=O)(=O)c1ccc(C(O)(CC2CCCC2)c2cc3cc(F)cnc3[nH]2)cc1` (single isomer, unassigned) [Example 49, 2-Cyclopentyl-1-(5-fluoro-1H-pyrrolo[2,3-b]pyridin-2-yl)-1-(4-methanesulfonyl-phenyl)-ethanol], the SC1.5 worked out at 0.354 µM.
For `N#Cc1ccc([C@@H](CC2CCCC2)c2cc3cc(F)cnc3[nH]2)cc1` (single isomer, unassigned) [Example 51], the SC1.5 stood at 0.343 µM.
Regarding `CS(=O)(=O)c1ccc([C@@H](CC2CCCC2)c2cc3cc(C#N)cnc3[nH]2)cc1` (single isomer, unassigned) [Example 53], the SC1.5 came out at 0.144 µM.
Turning to `COC(=O)c1cnc2[nH]c([C@H](CC3CCCC3)c3ccc(S(C)(=O)=O)cc3)cc2c1` (single isomer, unassigned) [Example 55], the SC1.5 is 0.512 µM.
As for `CS(=O)(=O)c1ccc([C@@H](CC2CCCC2)c2cc3cc(C(=O)O)cnc3[nH]2)cc1` (single isomer, unassigned) [Example 56], the SC1.5 turned out to be 3.4 µM.
Turning to `CC(C)(O)c1ccc([C@@H](CC2CCCC2)c2cc3cc(C(=O)O)cnc3[nH]2)cc1F` (single isomer, unassigned) [Example 58], the SC1.5 came out at 9.5 µM.
As for `CS(=O)(=O)c1ccc(C(CC2CCC(=O)C2)c2cc3cccnc3[nH]2)cc1` (single isomer, unassigned) [Example 78, 3-[2-(4-Methanesulfonyl-phenyl)-2-(1H-pyrrolo[2,3-b]pyridin-2-yl)-ethyl]-cyclopentanone], the SC1.5 was 11.9 µM.
In the case of `CS(=O)(=O)c1ccc(C(CC2CCC(=O)C2)c2cc3cccnc3[nH]2)cc1` (single isomer, unassigned) [Example 79, 3-[2-(4-Methanesulfonyl-phenyl)-2-(1H-pyrrolo[2,3-b]pyridin-2-yl)-ethyl]-cyclopentanone] it was 0.201 µM; in that of `CCC(O)(CC)c1ccc([C@@H](CC2CCCC2)c2cc3cccnc3[nH]2)cc1` (single isomer, unassigned) [Example 84], 5.9 µM; in that of `CS(=O)(=O)c1ccc(C(O)(CC2CCCC2)c2cc3cccnc3[nH]2)cc1` (single isomer, unassigned) [Example 86, 2-Cyclopentyl-1-(4-methanesulfonyl-phenyl)-1-(1H-pyrrolo[2,3-b]pyridin-2-yl)-ethanol], 0.857 µM.
In the case of `CCOC(CC1CCCC1)(c1ccc(S(C)(=O)=O)cc1)c1cc2cccnc2[nH]1` (single isomer, unassigned) [Example 87, 2-[2-Cyclopentyl-1-ethoxy-1-(4-methanesulfonyl-phenyl)-ethyl]-1H-pyrrolo[2,3-b]pyridine] it was 11.0 µM; in that of `CC(C)(O)c1ccc([C@@H](CC2CCCC2)c2cc3cccnc3[nH]2)cc1F` (single isomer, unassigned) [Example 96], 0.144 µM; in that of `CC(C)(O)c1ccc([C@@H](CC2CCOCC2)c2cc3cc(F)cnc3[nH]2)cc1F` (single isomer, unassigned) [Example 98], 0.67 µM.
On to `CC(C)C[C@H](c1ccc(S(C)(=O)=O)cc1)c1cc2cc(F)cnc2[nH]1` (single isomer, unassigned) [Example 100], for which the SC1.5 came to 0.201 µM.
With `CC(C)C[C@H](c1ccc(S(=O)(=O)CCO)cc1)c1cc2cc(F)cnc2[nH]1` (single isomer, unassigned) [Example 102], the SC1.5 stood at 0.427 µM.
With `CC(C)(O)c1ccc([C@@H](CC2CCCC2)c2cc3cc(F)cnc3[nH]2)cc1F` (single isomer, unassigned) [Example 104], the SC1.5 was found to be 0.081 µM.
Under `CC(C)C[C@H](c1ccc(C(C)(C)O)c(F)c1)c1cc2cc(F)cnc2[nH]1` (single isomer, unassigned) [Example 106] stands 0.189 µM; under `CS(=O)(=O)c1ccc([C@@H](CC2CCCC2)c2cc3cc(C(F)(F)F)cnc3[nH]2)cc1` (single isomer, unassigned) [Example 127], 0.607 µM.
For the compound `Cc1cnc2[nH]c([C@H](CC3CCCC3)c3ccc(C(C)(C)O)c(F)c3)cc2c1` (single isomer, unassigned) [Example 129], the SC1.5 is 2.6 µM.
In the case of `CC(C)CC(c1ccc(S(C)(=O)=O)cc1)c1cc2cc(C(=O)NC(C)C)cnc2[nH]1` (centres unmarked) [Example 1, 2-[1-(4-Methanesulfonyl-phenyl)-3-methyl-butyl]-1H-pyrrolo[2,3-b]pyridin-5-carboxylic acid isopropylamide], the SC1.5 worked out at 19.0 µM.
For the compound `CNC(=O)c1cnc2[nH]c(C(CC(C)C)c3ccc(S(C)(=O)=O)cc3)cc2c1` (centres unmarked) [Example 2, 2-[1-(4-Methanesulfonyl-phenyl)-3-methyl-butyl]-1H-pyrrolo[2,3-b]pyridin-5-carboxylic acid methylamide], the SC1.5 came to 11.3 µM.
In the case of `CS(=O)(=O)c1ccc(C(CC2CCCC2)c2cc3cc(C(=O)N4CCOCC4)cnc3[nH]2)cc1` (centres unmarked) [Example 4, {2-[2-Cyclopentyl-1-(4-methanesulfonyl-phenyl)-ethyl]-1H-pyrrolo[2,3-b]pyridin-5-yl}-morpholin-4-yl-methanone] it was 10.5 µM; in that of `CNC(=O)c1cnc2[nH]c(C(CC3CCCC3)c3ccc(S(C)(=O)=O)cc3)cc2c1` (centres unmarked) [Example 5, 2-[2-Cyclopentyl-1-(4-methanesulfonyl-phenyl)-ethyl]-1H-pyrrolo[2,3-b]pyridin-5-carboxylic acid methylamide], 1.9 µM; in that of `CNC(=O)c1cnc2[nH]c([C@H](CC3CCCC3)c3ccc(S(C)(=O)=O)cc3)cc2c1` [Example 6, 2-[2-Cyclopentyl-1(R)-(4-methanesulfonyl-phenyl)-ethyl]-1H-pyrrolo[2,3-b]pyridin-5-carboxylic acid methylamide], 1.0 µM.
In the case of `CS(=O)(=O)c1ccc(C(CC2CCCC2)c2cc3cc(C(O)CO)cnc3[nH]2)cc1` (centres unmarked) [Example 7, 1-{2-[2-Cyclopentyl-1-(4-methanesulfonyl-phenyl)-ethyl]-1H-pyrrolo[2,3-b]pyridin-5-yl}-ethane-1,2-diol] it was 25.6 µM.
